Data from patent publication US20250197864A1, “LNCRNA TRANSCRIPTS IN MELANOMAGENESIS” (The Regents of the University of California, priority 2021, published 2025).
{Chol} = cholesterol

How the values were obtained:
Experiment in all cases: Cell viability assay (ATP quantitation)
[1] = system: Sk-Mel-2 melanoma cell line; assay type: cell-based, human; settings: 50 nM, 5 days (120 hrs), vs non-targeting control
Procedure: (§1) EsiRNA, siRNA and ASO GapmeRs were transfected in a final concentration of 50 nM unless mentioned otherwise and the transfection reagent Lipofectamine 3000 (2 ul/ml) was added according to the manufacturer's instructions.
(§2) Dependent on cell doubling time, 0.7-2×10^^3 cells were seeded in 96 well plates. 1 day after seeding cells were incubated in media with oligonucleotide concentration and/or MEKi and transfection reagent. 3 (synergy experiments) or 5 (solely ASO) days after transfection Total luminescence was measured on the SynergyHT plate reader (BioTek) using Gen5 software.

D04 melanoma cell line = assay type: cell-based, human; settings: 50 nM, 5 days (120 hrs), vs non-targeting control
Procedure: as §1, §2

[2] = system: Sk-Mel-28 melanoma cell line; assay type: cell-based, human; settings: 50 nM, 5 days (120 hrs), vs non-targeting control
Procedure: as §1, §2

MM415 melanoma cell line = assay type: cell-based, human; settings: 50 nM, 5 days (120 hrs), vs non-targeting control
Procedure: as §1, §2

[3] = system: Sk-N-AS Neuroblastoma cell line; assay type: cell-based; settings: 50 nM, 5 days, vs non-targeting control
Procedure: as §1, §2

[4] = system: MaMel30 melanoma cell line; assay type: cell-based; settings: 50 nM, 5 days, vs non-targeting control
Procedure: as §1, §2

[5] = system: AV5 primary melanoma cell line; assay type: cell-based, human; settings: 50 nM, 5 days (120 hrs), vs non-targeting control
Procedure: as §1, §2

[6] = system: sarcoma cell line SK-LMS-1; assay type: cell-based; settings: SK-LMS-1 sarcoma; 50 nM, 120 hrs; Lipofectamine3000 2 ul/ml; vs non-targeting control ASO
Procedure: as §1, §2
(§3) Cell viability was compared to treatment with non-targeting control ASO-treatment. Lipofectamine3000 concentration was 2 ul/ml.

[7] = system: hepatocellular carcinoma cell line HepG2; assay type: cell-based; settings: 50 nM, 120 hrs, Lipofectamine3000 2 ul/ml, vs non-targeting control ASO
Procedure: as §1, §2, §3

[8] = system: WM3629 melanoma cell line; assay type: cell-based, human; settings: 50 nM, 5 days (120 hrs), vs non-targeting control
Procedure: as §1, §2

VMM39 melanoma cell line = assay type: cell-based, human; settings: 50 nM, 5 days (120 hrs), vs non-targeting control
Procedure: as §1, §2

[9] = system: WM1366 melanoma cell line; assay type: cell-based, human; settings: 50 nM, 5 days (120 hrs), vs non-targeting control
Procedure: as §1, §2

[10] = system: WM3211 melanoma cell line; assay type: cell-based, human; settings: 50 nM, 5 days (120 hrs), vs non-targeting control
Procedure: as §1, §2

[11] = system: Hs852.T primary melanoma cell line; assay type: cell-based, human; settings: 50 nM, 5 days (120 hrs), vs non-targeting control
Procedure: as §1, §2

Measured: cell viability decrease

GTAAGTAGGAGCTGTG (QIAGEN GapmeR, modification pattern not given here) [SEQ ID NO: 22, Antisense oligonucleotide targeting AL157871.4-201]
significant cell viability decrease: [1] | D04 melanoma cell line | [2] | MM415 melanoma cell line | [3] | [4]

AGCAAUGACUCCUGAACAUUU (antisense AUGUUCAGGAGUCAUUGCUUU; siRNA; 5' phosphate on antisense strand, other chemistry not given here) [SEQ ID NO: 27, siRNA targeting RP11-7011.3]
significant cell viability decrease: D04 melanoma cell line | [5] | [2]

GACTGGAGATAATTAA-Cholesterol (3' {Chol}, sugars by position and backbone not given here; GapmeR, chemically modified) [SEQ ID NO:47, TRASH targeting ASO with additional Cholesterol modification]
significant cell viability decrease: D04 melanoma cell line | MM415 melanoma cell line | [6] | [7]

5′-GGUAAAAACAUGAAGCUAAUAGUUA-3′ (chain 2 ACCCAUUUUUGUACUUCGAUUAUCAAU; listed as RNA, chemistry not given here; one strand is listed 3' to 5') [SEQ ID NO: 42]
significant cell viability decrease: [1] | D04 melanoma cell line | MM415 melanoma cell line

UGGAUAAUGAUAAGGUCUAUU (antisense UAGACCUUAUCAUUAUCCAUU; listed as RNA, chemistry not given here) [SEQ ID NO: 39, siRNA targeting AL157871.4-201]
significant cell viability decrease: D04 melanoma cell line

5′-UCACAAAGAGAGACAGGAAUU-3′ (chain 2 UUCCUGUCUCUCUUUGUGAUU; listed as RNA, chemistry not given here) [SEQ ID NO:46]
significant cell viability decrease: D04 melanoma cell line | MM415 melanoma cell line

5′-GCCAACAGCAUGUCAAUUCAGUGAT-3′ (chain 2 GACGGUUGUCGUACAGUUAAGUCACUA; chemistry not given here; one strand is listed 3' to 5') [SEQ ID NO: 43]
significant cell viability decrease: [1] | D04 melanoma cell line | [8]

5′-AUUUCAUGUCUGAAGCAAUUCUACT-3′ (chain 2 AAUAAAGUACAGACUUCGUUAAGAUGA; chemistry not given here; one strand is listed 3' to 5') [SEQ ID NO: 44]
significant cell viability decrease: [1] | D04 melanoma cell line | MM415 melanoma cell line | [8]

AAGTCCTTGGTTGATG (QIAGEN GapmeR, modification pattern not given here) [SEQ ID NO: 21, Antisense oligonucleotide targeting AL157871.4-201]
significant cell viability decrease: [1] | D04 melanoma cell line | [2] | MM415 melanoma cell line | [3]

GAGUAACAGAGGAGAACUUUU (antisense AAGUUCUCCUCUGUUACUCUU; siRNA; 5' phosphate on antisense strand, other chemistry not given here) [SEQ ID NO: 25, siRNA targeting both isoforms of AC004540.4]
significant cell viability decrease: [5]

CTCATGAGCTGTCGTA (QIAGEN GapmeR, modification pattern not given here) [SEQ ID NO: 41, Antisense oligonucleotide targeting AC004540.4-001 and AC004540.4-002]
not listed: [3] | [4]
significant cell viability decrease: all other assays above

GCGTCAACTAAAGCAA (QIAGEN GapmeR, modification pattern not given here) [SEQ ID NO: 20, Antisense oligonucleotide targeting ARF-AS1-202 and ARF-AS1-203]
significant cell viability decrease: [1] | D04 melanoma cell line | [2] | MM415 melanoma cell line | [3]

ATTGATGAAAGGTGAA (QIAGEN GapmeR, modification pattern not given here) [SEQ ID NO: 19, Antisense oligonucleotide targeting ARF-AS1-201, ARF-AS1-202 and ARF-AS1-203]
significant cell viability decrease: [1] | D04 melanoma cell line | [2] | MM415 melanoma cell line | [3] | [4]

GGAAAGGCGAGCUGAGCAUUU (antisense AUGCUCAGCUCGCCUUUCCUU; listed as RNA, chemistry not given here) [SEQ ID NO: 37, siRNA targeting ARF-AS1 isoform 1]
significant cell viability decrease: D04 melanoma cell line

AGATGGCTCTGTAAGA (QIAGEN GapmeR, modification pattern not given here) [SEQ ID NO: 49, Antisense oligonucleotide targeting SNX10]
significant cell viability decrease: D04 melanoma cell line

CCCAGAAGCUAGAGGUAAAUU (antisense UUUACCUCUAGCUUCUGGGUU; listed as RNA, chemistry not given here) [SEQ ID NO: 23, siRNA targeting BX470102.3-008]
significant cell viability decrease: D04 melanoma cell line | [5] | [2]
